Laboratory results published in patent publication US20230338347A1, “New Use of Inhibitors of the Notch Signalling Pathway” (Cellestia Biotech AG, priority 2020, published 2023).

What was measured:
[1] = tested on: DTX-1 (Deltex E3 Ubiquitin Ligase 1); test: Compassionate use T-ALL patient: DTX-1 gene expression by RTqPCR; type: in vivo, human; conditions: at C2D15; time-dependent; target dose 500 mg once daily
Protocol: DTX-1 is a positive regulator of NOTCH signalling pathway (C1D01_pre: Cycle 1 Day 1 predose; C1D01_1 h: Cycle 1 Day 1 1 hour post dose; C1D21_1 h: Cycle 1 Day 21 1 hour post dose; C2D15_1 h: Cycle 2 Day 15 1 hour post dose).
Administration of 6-(4-Tert-Butylphenoxy)Pyridin-3-Amine induced a potent time-dependent downregulation of DTX-1 (Deltex E3 Ubiquitin Ligase 1) up to 95% at C2D15, indicative of NOTCH pathway downregulation. DTX-1 is a positive regulator of NOTCH signalling pathway
Blood samples for PBMCs and cytokine analysis were collected using BD Vacutainer® Evacuated Blood Collection Tubes, and immediately centrifuged to separate the cell and plasma compartments for further analysis. Gene expression profiling was performed by standard RTqPCR. Cytokine analysis in the plasma compartment was performed with a standard commercially available ELISA method.

[2] = Phase I/IIA first-in-human dose escalation: safety and tolerability (adverse events, DLT); conditions: in vivo
Excerpt: […], open-label study investigating the safety, tolerability, pharmacokinetics (PK), pharmacodynamics (PD) and preliminary efficacy of the pan-NOTCH inhibitor 6-(4-Tert-Butylphenoxy)Pyridin-3-Amine in adult patients with locally advanced or metastatic solid tumours or hematologic malignancies.
6-(4-Tert-Butylphenoxy)Pyridin-3-Amine is orally administered and is a small molecule targeting the NOTCH signalling pathway with binding to the NOTCH-specific transcription complex located at the nucleus of cells. The study is divided into two parts with Part A being the dose escalation part of the study to determine the maximum tolerated dose (MTD) or recommended Phase II dose (RP2D). In Part A at least 3, up to 6 patients per dose will participate in the sequentially enrolled dose cohorts. In an additional cohort of approximately 45-50 patients, the safety of the previously determined RP2D will be confirmed (dose confirmatory cohort).
The dosing will be 15, 30, 60, 120, 170, 250, 400, or 600 mg of the 6-(4-Tert-Butylphenoxy)Pyridin-3-Amine monohydrochloride salt or higher per day or alternatively 20, 40, 60, 120, 170, 250, 400, or 600 mg of the 6-(4-Tert-Butylphenoxy)Pyridin-3-Amine monohydrochloride salt or higher per day. Dosing of 15, 30, 60, 120, 170, 250, 400, or 600 mg of the 6-(4-Tert-Butylphenoxy)Pyridin-3-Amine monohydrochloride salt corresponds to dosing of 13, 26, 52, 104, 148, 217, 348, or 522 mg of 6-(4-Tert-Butylphenoxy)Pyridin-3-Amine (free base). Dosing of 20, 40, 60, 120, 170, 250, 400, or 600 mg of the 6-(4-Tert-Butylphenoxy)Pyridin-3-Amine monohydrochloride salt corresponds to dosing of 17, 35, 52, 104, 148, 217, 348, or 522 mg of 6-(4-Tert-Butylphenoxy)Pyridin-3-Amine (free base). For this study, 6-(4-Tert-Butylphenoxy)Pyridin-3-Amine monohydrochloride salt was formulated into a capsule having a drug load of 5, 10, 20, 50 and 100 mg, respectively intended to be administered orally. • Patients will meet the following criteria:
The primary outcome measures for this study are: • Part A (Escalation): Dose limiting toxicities (DLT) • Part B (Expansion): Best overall response according to the respective tumour assessment criteria for the different cancer indications.
Fourty-one patients (median age 55 years, range 25 to 76 years) have been treated with 6-(4-Tert-Butylphenoxy)Pyridin-3-Amine in the dose escalation part of the clinical study at oral doses of 15 mg-600 mg QD (once a day). […] Cumulatively, a total of 352 AEs has occurred in 41 patients since study initiation, of which 132 AEs […] in 31 patients were considered related to the study drug. The treatment-related treatment-emergent AEs (TEAEs) most commonly reported (≥10% of patients) were nausea (24%), diarrhea (20%), dyspepsia (15%), fatigue (12%), and vision blurred (12%).

[3] = tested on: Notch-activated relapsed and treatment refractory T-ALL; test: Compassionate use in a NOTCH positive relapsed refractory T-ALL patient: clinical response; type: in vivo, human; conditions: free base once daily 300 to 400 to 500 mg
Protocol: In a compassionate use program, a patient with Notch-activated relapsed and treatment refractory T-ALL was treated with 6-(4-Tert-Butylphenoxy)Pyridin-3-Amine (free base) once daily starting with 300 mg, increased to 400 mg, then 500 mg in addition to their ongoing anti-cancer treatment. Dose escalation was done every 3 days to reach the target dose 500 mg.

NOTCH target genes = test: NOTCH target gene expression in hair follicles of Phase 1 patients (Nanostring); type: in vivo, human; conditions: several NOTCH target genes, starting at Cycle 2 day 1
Excerpt: Hair follicles were obtained at pre-defined time points to measure changes in NOTCH target genes expression by 6-(4-Tert-Butylphenoxy)Pyridin-3-Amine treatment. NOTCH target gene down-regulation in hair follicles has been reported to be a robust and indicative biomarker that correlates with both clinical efficacy and the incidence of DLTs (Tanis K Q, et al. Clin Pharmacol Ther 2016; 99(4):370-80; Cook N, et al. BJC 2018; 118(6):793-801).
Between 5 to 10 hairs were plucked to extract the complete and undamaged hairbulb (full hair follicle), and processed as described in Camidge D R, et al. Br J Cancer 2005; 92:1837-41 and Bradley B J, et al. Mol EcolNotes 2005; 5:961-4. RNA concentration was measured by Qubit (RNAHighSensitivity), and RNA integrity was evaluated on a RNA 6000 Pico chip. RNA samples were tested for gene expression profiling on a Nanostring platform.
Table 1: NOTCH target down regulation in hair follicles and blood cells from Phase 1 patients. Target gene down regulation (CCND3, cyclin-D3; HES1, Hairy and enhance of split-1; HES4, Hairy and enhance of split-4; HESS, Hairy and enhance of split-5; HEY1, hes related family bHLH transcription factor with YRPW motif1; HEY2; hes related family bHLH transcription factor with YRPW motif 2; HEYL, hes-related family bHLH transcription factor with YRPW motif-like; IL7R-α, Interleukin-7 receptor subunit alpha; NOTCH1; NOTCH2; NRARP (NOTCH Regulated Ankyrin Repeat Protein): […]

CC(C)(C)c1ccc(Oc2ccc(N)cn2)cc1 [6-(4-Tert-Butylphenoxy)Pyridin-3-Amine]
downregulation of DTX-1 [1]: up to 95%
AEs considered related to the study drug, share of all AEs ([2]; human): 37.2%
number of AEs considered related to the study drug ([2]; human): 132
number of patients with AEs considered related to the study drug ([2]; human): 31
number of serious adverse events (SAEs) ([2]; human): 12
related AE of tachycardia ([2]; human): one related AE of tachycardia Grade 1
serious adverse events, share of all AEs ([2]; human): 3.4%
total number of AEs ([2]; human): 352
treatment-related TEAE diarrhea ([2]; human): 20%
treatment-related TEAE dyspepsia ([2]; human): 15%
treatment-related TEAE fatigue ([2]; human): 12%
treatment-related TEAE nausea ([2]; human): 24%
treatment-related TEAE vision blurred ([2]; human): 12%
QTc prolongation [2]: no QTc prolongations
SAEs considered related to study drug [2]: one SAE was considered related to study drug
cardiotoxicity signal [2]: no signal of cardiotoxicity
deaths due to drug-related AEs [2]: No deaths due to drug-related AEs
dose limiting toxicity (DLT) [2]: one dose limiting toxicity
dose relation of AEs over the dose cohorts [2]: no evidence of dose relation
skin phototoxicity or eye mydriasis events [2]: No events of skin phototoxicity or eye mydriasis
time to complete remission after starting dosing [3]: ≤ 1 week
clinical response ([3]; added to ongoing anti-cancer treatment): complete remission
average NOTCH target gene downregulation compared to baseline (inhibition) (NOTCH target genes): higher than 90%
